The values that follow are results of earlier work, collected in patent publication US6627665B2 (Arch Chemicals, Inc., priority 2001, dated 2003).

The data set relates to rats.

With `On1ccccc1=S.On1ccccc1=S.[Cu]` [Copper pyrithione powder, copper pyrithione], the “acute inhalation toxicity relative to zinc pyrithione powder” value is given as “more toxic than zinc pyrithione powder”.
